Patent publication EP4122499A1, “FIBROBLAST ACTIVATION PROTEIN INHIBITORS AND USE THEREOF” (3B Pharmaceuticals GmbH, priority 2021, dated 2023)

Assays:
Recombinant human DPP4 = target: T1, Recombinant human DPP4 (Homo sapiens, UniProt P27487); test: DPP4 protease activity assay; assay type: biochemical; conditions: 20 µM GP-AMC substrate; for IC50: read-out: pIC50 (DPP4) (converted)
T1 construct: purchased R&D systems 9168-SE
Protocol: (§1) The PREP activity assay was performed using the FACS buffer (PBS including 1% FBS, Sigma-Aldrich, Cat# D8537). […] The DPP4 activity assay was performed in DPP assay buffer (25 mM Tris, pH 8.0).
(§2) Four parameter logistic (4PL) curve fitting and pIC50 calculations were performed using ActivityBase software.

recombinant human PREP = target: T2, recombinant human PREP (Homo sapiens, UniProt P48147); test: PREP protease activity assay; assay type: biochemical; conditions: 50 µM Z-GP-AMC substrate
T2 construct: purchased R&D systems 4308-SE
T2 sequence (P48147 1-710): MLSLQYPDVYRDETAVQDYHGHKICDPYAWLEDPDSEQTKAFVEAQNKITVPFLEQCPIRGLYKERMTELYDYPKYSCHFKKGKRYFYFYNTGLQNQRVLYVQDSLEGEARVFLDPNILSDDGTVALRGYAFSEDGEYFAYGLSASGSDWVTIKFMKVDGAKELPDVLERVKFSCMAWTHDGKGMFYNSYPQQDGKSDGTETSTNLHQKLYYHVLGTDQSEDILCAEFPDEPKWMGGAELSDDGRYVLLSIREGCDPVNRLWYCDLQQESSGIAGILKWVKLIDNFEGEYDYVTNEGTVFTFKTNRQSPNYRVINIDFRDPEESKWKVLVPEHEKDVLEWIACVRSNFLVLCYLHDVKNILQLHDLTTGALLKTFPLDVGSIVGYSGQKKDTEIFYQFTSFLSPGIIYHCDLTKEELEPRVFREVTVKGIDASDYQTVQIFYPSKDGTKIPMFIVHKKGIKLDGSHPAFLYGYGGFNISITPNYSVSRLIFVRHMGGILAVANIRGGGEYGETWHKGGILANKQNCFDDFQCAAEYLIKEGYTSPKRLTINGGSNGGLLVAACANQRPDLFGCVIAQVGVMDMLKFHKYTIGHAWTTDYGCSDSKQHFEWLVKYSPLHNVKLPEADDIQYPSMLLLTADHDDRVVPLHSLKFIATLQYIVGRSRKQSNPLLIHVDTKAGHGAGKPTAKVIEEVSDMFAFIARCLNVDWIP
Protocol: as §1, §2

Human recombinant FAP = target: T3, Human recombinant FAP (Homo sapiens, UniProt Q12884); test: FRET-based FAP protease activity assay (human); assay type: biochemical; set-up: purchased R&D systems 3715-SE; conditions: FRET-peptide substrate, 37°C; for IC50: read-out: pIC50 (Activity) (converted)
T3 sequence (Q12884 1-760): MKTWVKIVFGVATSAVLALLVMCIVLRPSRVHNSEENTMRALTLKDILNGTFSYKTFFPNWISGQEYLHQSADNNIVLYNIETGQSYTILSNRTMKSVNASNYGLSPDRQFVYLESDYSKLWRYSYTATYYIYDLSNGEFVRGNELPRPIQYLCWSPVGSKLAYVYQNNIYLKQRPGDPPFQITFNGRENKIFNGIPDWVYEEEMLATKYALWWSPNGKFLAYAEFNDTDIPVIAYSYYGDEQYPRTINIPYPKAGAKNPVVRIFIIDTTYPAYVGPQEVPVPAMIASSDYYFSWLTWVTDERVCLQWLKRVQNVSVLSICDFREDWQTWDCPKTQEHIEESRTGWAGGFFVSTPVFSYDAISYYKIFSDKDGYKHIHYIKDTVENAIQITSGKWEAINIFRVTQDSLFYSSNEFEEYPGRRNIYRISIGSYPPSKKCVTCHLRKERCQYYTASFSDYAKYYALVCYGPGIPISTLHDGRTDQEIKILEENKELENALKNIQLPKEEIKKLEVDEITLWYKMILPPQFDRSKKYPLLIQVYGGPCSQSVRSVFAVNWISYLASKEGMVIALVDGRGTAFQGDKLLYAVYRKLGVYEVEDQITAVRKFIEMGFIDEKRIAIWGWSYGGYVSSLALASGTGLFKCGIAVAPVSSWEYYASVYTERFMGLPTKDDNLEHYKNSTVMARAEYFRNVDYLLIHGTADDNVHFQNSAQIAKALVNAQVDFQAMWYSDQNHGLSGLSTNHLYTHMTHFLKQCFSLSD
Protocol: In order to determine the inhibitory activity a FRET-based FAP protease activity assay was established.
25 µL of a 30 µM substrate solution, diluted in assay buffer, was added. […] Four parameter logistic (4PL) curve fitting and pIC50 calculations were performed using ActivityBase software (IDBS).

[1] = target: T4, FAP-expressing human WI-38 fibroblasts (Homo sapiens, UniProt Q12884); test: Competitive FACS binding assay (displacement of Cy5-labeled FAP inhibitor 3BP-2935); conditions: 3 nM Cy5-labeled 3BP-2935, 4°C, 1 hour
T4 construct: FAP-expressing human WI-38 fibroblasts (ECACC 90020107) were cultured in EMEM; host or cells: WI-38 human fibroblasts
T4 sequence (Q12884 1-760): T3 sequence (Q12884 1-760)

T1 sequence (P27487 whole entry): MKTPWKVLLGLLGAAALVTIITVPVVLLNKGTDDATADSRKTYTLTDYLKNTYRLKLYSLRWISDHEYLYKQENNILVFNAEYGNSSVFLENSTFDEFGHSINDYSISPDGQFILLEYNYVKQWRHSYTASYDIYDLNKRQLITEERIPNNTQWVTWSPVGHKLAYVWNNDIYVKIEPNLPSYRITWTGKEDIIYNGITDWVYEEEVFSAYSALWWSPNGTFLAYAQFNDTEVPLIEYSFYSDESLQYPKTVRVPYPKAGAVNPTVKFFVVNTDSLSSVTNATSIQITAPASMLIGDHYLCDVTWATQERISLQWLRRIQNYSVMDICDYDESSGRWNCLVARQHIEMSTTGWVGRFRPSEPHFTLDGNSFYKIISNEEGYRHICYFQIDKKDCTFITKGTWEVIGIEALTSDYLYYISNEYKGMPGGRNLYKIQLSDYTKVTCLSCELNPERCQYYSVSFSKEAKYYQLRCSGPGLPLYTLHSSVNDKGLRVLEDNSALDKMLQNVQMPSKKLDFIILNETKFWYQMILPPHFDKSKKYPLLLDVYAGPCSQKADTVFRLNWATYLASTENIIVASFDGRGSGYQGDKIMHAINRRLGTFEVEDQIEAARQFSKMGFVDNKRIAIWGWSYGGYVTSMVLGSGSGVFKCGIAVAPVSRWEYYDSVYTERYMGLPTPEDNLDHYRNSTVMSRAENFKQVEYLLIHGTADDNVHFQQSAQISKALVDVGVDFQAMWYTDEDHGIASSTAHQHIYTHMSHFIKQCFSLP

Row | Compound | pIC50 (DPP4) (Recombinant human DPP4) | pIC50 (PREP) (recombinant human PREP) | pIC50 (Activity) (Human recombinant FAP) | pIC50 (FACS) [1] | IC50 (Recombinant human DPP4) [nM] | IC50 (recombinant human PREP) [nM] | IC50 (Human recombinant FAP) [nM] | IC50 [1] [nM]
1 | O=C(O)CN1CCN(CC(=O)O)CCN(CC(=O)N2CCN(CCNC(=O)c3ccc(-c4ccc5c(C(=O)NCC(=O)N6CCC[C@H]6C(=O)c6nc7ccccc7o6)ccnc5c4)cc3)CC2)CCN(CC(=O)O)CC1 [drawing 355] | <6 | 8.7 | 8.7 | 8.4 |  |  |  | 
2 | CS(=O)(=O)c1ccc(-c2ccc3c(C(=O)NCC(=O)N4CCC[C@H]4C#N)ccnc3c2)cc1 [drawing 290] |  |  |  |  | > 1000 | 794 | 1.58 | 6.31
3 | O=C(NCC(=O)N1CCC[C@H]1C(=O)c1nc2ccccc2o1)c1ccnc2ccccc12 |  |  |  |  | > 1000 | 1 | 1.58 | 6.31
4 | N#C[C@@H]1CCCN1C(=O)CNC(=O)c1ccnc2ccc(-c3ccc(C(=O)NCCCNC(=O)CN4CCN(CC(=O)O)CCN(CC(=O)O)CCN(CC(=O)O)CC4)cc3)cc12 | <6 |  | 9 | 8.7 |  |  |  | 
5 | O=C(NCC(=O)N1CCC[C@H]1C(=O)c1ncco1)c1ccnc2ccccc12 [drawing 297] |  |  |  |  | > 1000 | 0.631 | 6.31 | 12.6
6 | N#C[C@@H]1CC(F)(F)CN1C(=O)CNC(=O)c1ccnc2ccc(-c3ccc(C(=O)NCCCNC(=O)CN4CCN(CC(=O)O)CCN(CC(=O)O)CCN(CC(=O)O)CC4)cc3)cc12 | <6 |  | 9.2 | 8.9 |  |  |  | 
7 | O=C(O)CN1CCN(CC(=O)O)CCN(CC(=O)N2CCN(CCCOc3ccc4nccc(C(=O)NCC(=O)N5C[C@@H](F)C[C@H]5C(=O)c5nc6ccccc6o5)c4c3)CC2)CCN(CC(=O)O)CC1 [drawing 358] | <6 | 7.8 | 9 | 8.6 |  |  |  | 
8 | N#C[C@@H]1CC(F)(F)CN1C(=O)CNC(=O)c1ccnc2ccc(-c3ccc(C(=O)NCCN4CCN(C(=O)CN5CCN(CC(=O)O)CCN(CC(=O)O)CCN(CC(=O)O)CC5)CC4)cc3)cc12 | <6 | <6 | 9.1 | 8.7 |  |  |  | 
9 | N#C[C@@H]1CC(F)(F)CN1C(=O)CNC(=O)c1ccnc2ccc(-c3ccc(C(=O)NCCCNC(=O)CN4CCN(CC(=O)O)CCN(CC(=O)O)CCN(CC(=O)O)CC4)nc3)cc12 | <6 | <6 | 9.1 | 8.8 |  |  |  | 
10 | CS(=O)(=O)c1cccc(-c2ccc3nccc(C(=O)NCC(=O)N4CC(F)(F)C[C@H]4C#N)c3c2)c1 [drawing 288] |  |  |  |  | 794 | > 1000 | 0.631 | 1.58
11 | O=C(O)CN1CCN(CC(=O)O)CCN(CC(=O)NCCCNC(=O)c2ccc(-c3ccc4nccc(C(=O)NCC(=O)N5CCC[C@H]5B(O)O)c4c3)cc2)CCN(CC(=O)O)CC1 | <6 | 8.2 | 8.8 | 8.9 |  |  |  | 

The remaining lines, values ahead:

Row | pIC50 (DPP4) (Recombinant human DPP4) | pIC50 (PREP) (recombinant human PREP) | pIC50 (Activity) (Human recombinant FAP) | pIC50 (FACS) [1] | IC50 (Recombinant human DPP4) [nM] | IC50 (recombinant human PREP) [nM] | IC50 (Human recombinant FAP) [nM] | IC50 [1] [nM] | Compound
12 | <6 | 8.4 | 8.7 | 8.4 |  |  |  |  | O=C(O)CN1CCN(CC(=O)O)CCN(CC(=O)N2CCN(CCNC(=O)c3cccc(-c4ccc5c(C(=O)NCC(=O)N6CCC[C@H]6C(=O)c6nc7ccccc7o6)ccnc5c4)c3)CC2)CCN(CC(=O)O)CC1 [drawing 352]
13 |  |  |  |  | > 1000 | > 1000 | 1 | 3.98 | CS(=O)(=O)c1cccc(-c2ccc3nccc(C(=O)NCC(=O)N4CCC[C@H]4C#N)c3c2)c1
14 |  |  |  |  | > 1000 | > 1000 | 2 | 6.31 | CS(=O)(=O)c1cccc(-c2ccc3c(C(=O)NCC(=O)N4CCC[C@H]4C#N)ccnc3c2)c1
15 |  |  |  |  | > 1000 | 1.26 | 3.98 | 15.8 | CC(C)(C)c1nnc(C(=O)[C@@H]2CCCN2C(=O)CNC(=O)c2ccnc3ccccc23)o1
16 | <6 | 8.2 | 8.4 | 7.9 |  |  |  |  | O=C(O)CN1CCN(CC(=O)O)CCN(CC(=O)N2CCN(CCNC(=O)c3ccc(-c4ccc5nccc(C(=O)NCC(=O)N6CCC[C@H]6C(=O)c6nc7ccccc7o6)c5c4)cc3)CC2)CCN(CC(=O)O)CC1 [drawing 354]
17 | <6 |  | 9 | 8.5 |  |  |  |  | N#C[C@@H]1CC(F)(F)CN1C(=O)CNC(=O)c1cc[n+]([O-])c2ccc(OCCCN3CCN(C(=O)CN4CCN(CC(=O)O)CCN(CC(=O)O)CCN(CC(=O)O)CC4)CC3)cc12
18 | <6 | 8.6 | 8.9 | 8.6 |  |  |  |  | O=C(O)CN1CCN(CC(=O)O)CCN(CC(=O)N2CCN(CCCOc3ccc4nccc(C(=O)NCC(=O)N5CCC[C@H]5C(=O)c5nc6ccccc6o5)c4c3)CC2)CCN(CC(=O)O)CC1 [drawing 357]
19 | <6 | 7.9 | 8.4 | 7.6 |  |  |  |  | O=C(O)CN1CCN(CC(=O)O)CCN(CC(=O)N2CCN(CCNC(=O)c3ccc(-c4ccc5nccc(C(=O)NCC(=O)N6CCC[C@H]6C(=O)c6nc7ccccc7o6)c5c4)cn3)CC2)CCN(CC(=O)O)CC1 [drawing 361]
20 | <6 | 8.2 | 8.8 | 8.6 |  |  |  |  | O=C(O)CN1CCN(CC(=O)O)CCN(CC(=O)NCCCNC(=O)c2ccc(-c3ccc4nccc(C(=O)NCC(=O)N5CCC[C@H]5C(=O)c5nc6ccccc6o5)c4c3)cc2)CCN(CC(=O)O)CC1
21 |  |  |  |  | > 1000 | > 1000 | 0.631 | 1 | CS(=O)(=O)c1ccc(-c2ccc3nccc(C(=O)NCC(=O)N4CC(F)(F)C[C@H]4C#N)c3c2)cc1
22 | <6 | 7.8 | 8.6 | 8.5 |  |  |  |  | O=C(O)CN1CCN(CC(=O)O)CCN(CC(=O)N2CCN(CCNC(=O)c3cccc(-c4ccc5nccc(C(=O)NCC(=O)N6CCC[C@H]6C(=O)c6nc7ccccc7o6)c5c4)c3)CC2)CCN(CC(=O)O)CC1 [drawing 353]
23 |  |  |  |  | > 1000 | 15.8 | 39.8 | 63.1 | O=C(NCC(=O)N1CCC[C@H]1C(=O)c1nc2ccccc2s1)c1ccnc2ccccc12
24 |  |  |  |  | > 1000 | 25.1 | 50.1 | 100 | O=C(NCC(=O)N1CCC[C@H]1C(=O)c1nccs1)c1ccnc2ccccc12
25 | <6 | 7.3 | 8.5 | 7.6 |  |  |  |  | O=C(O)CN1CCN(CC(=O)O)CCN(CC(=O)N2CCN(CCNC(=O)c3ccc(-c4ccc5nccc(C(=O)NCC(=O)N6C[C@@H](F)C[C@H]6C(=O)c6nc7ccccc7o6)c5c4)cc3)CC2)CCN(CC(=O)O)CC1 [drawing 360]
26 |  |  |  |  | > 1000 | > 1000 | 0.631 | 3.98 | CS(=O)(=O)c1ccc(-c2ccc3nccc(C(=O)NCC(=O)N4CCC[C@H]4C#N)c3c2)cc1
